Laboratory results: US20230218773A1 (priority 2020, published 2023)
Numbered stars: 1 amine (or outer) side, 2 acyl side, 3 side chain; on linkers, the order of the positions; unused ones are H or OH. Square brackets hold non-standard residues; d marks the D form. Peptide text beside a SMILES is read from it. * marks the point of attachment. Dolaproine = CO[C@@H]([C@@H]1CCCN1)[C@@H](C)C(=O)O; Hexanoyl(6-maleimido) = O=C1C=CC(=O)N1CCCCCC(=O)*; Dil = CC[C@H](C)[C@H](NC)[C@@H](CC(=O)O)OC; PABC = O=C(OCc1ccc(N[*:1])cc1)[*:2]; X1 = C[C@@H](N*)[C@@H](O)c1ccccc1; Cit = NC(=O)NCCC[C@H](N)C(=O)O; NMeV = CN[C@H](C(=O)O)C(C)C

Experiments:
[1] = tested on: MIA PaCa2 cells; assay: Uptake of fluorescein-albumin conjugate with macropinocytosis inhibitor, MIA PaCa2 cells; assay type: cell-based, human; details: EIPA 50 μM and 75 μM, flow cytometer
Procedure: (§1) FIGS. 10A-10B: (A) MIA PaCa2 cells and (B) PANC1 cells were seeded in 12-well plates at 5×10^5 cells/well and allowed to attach overnight. Cells were first starved in serum free medium for 2 hours followed by treatment with macropinocytosis inhibitor (EIPA: 5-(N-Ethyl-N-isopropyl)amiloride) for 30 min. […] Then cells were detached and analyzed by flow cytometer (Accuri). […] (*p<0.05, **p<0.01)

[2] = tested on: PANC1 cells; assay: Uptake of fluorescein-albumin conjugate with macropinocytosis inhibitor, PANC1 cells; assay type: cell-based, human; details: EIPA 50 μM and 75 μM, flow cytometer
Procedure: as §1

[3] = tested on: MIA PaCa2 cells; assay: MTT assay, MIA PaCa2 cells; assay type: cell-based, human
Text: (§2) Cell lines and culture: Human pancreatic cancer cell line MIA PaCa2 cells and primary umbilical vein endothelial cells (HUVEC) were purchased from American Type Culture Collection (ATCC). Human pancreatic cancer cell line PANC1 cells were kindly provided by Dr. Zhengrong Cui (College of Pharmacy, The University of Texas at Austin). Mouse mT4-2D pancreatic cancer cell line, which is derived from a Kras^+/LSL-G12DTp53^+/LSL-R172HPdx1-Cre transgenic model of pancreatic cancer, was kindly provided by Dr. Kyaw Aung (Livestrong Cancer Institutes, Dell Medical School, The University of Texas at Austin). MIA PaCa2 cells, PANC1, and mT4-2D cells were maintained in Dulbecco's […] with high glucose (Corning). Cell culture medium was supplemented with 10% fetal bovine serum (Gibco) and 100 U/mL penicillin-streptomycin (Gibco). HUVEC cells were maintained according to protocol provided by ATCC. All cells were maintained at 37° C. in a humidified atmosphere with 5% carbon dioxide.
(§3) MTT Assay: Cells were seeded in 96 well plates at a density of 5,000 cells/well. Cells were incubated overnight to allow attachment to the bottom of the plates. […] Untreated cells were used as control. After the treatments, 10 μL of MTT (3-(4,5-Dimethylthiazol-2-yl)-2,5-Diphenyltetrazolium Bromide, 5 mg/mL) was added to each well and incubated for an additional 4 hours. Then, the medium was replaced with 150 μL dimethyl sulfoxide (DMSO). After the formazan crystals were completely dissolved, the absorbance at 570 nm was read by a plate reader (Infinite®200 Pro, Tecan). Cell survival rate was calculated as follows: […]
(§4) The IC50 (half maximal inhibitory concentration) was calculated using GraphPad Prism 8.

[4] = tested on: PANC1 cells; assay: MTT assay, PANC1 cells; assay type: cell-based, human
Text: as §2, §3, §4

[5] = tested on: HUVEC cells; assay: MTT assay, HUVEC cells; assay type: cell-based, human
Text: as §2
MTT Assay: Cells were seeded in 96 well plates at a density of 5,000 cells/well. […] After the formazan crystals were completely dissolved, the absorbance at 570 nm was read by a plate reader (Infinite®200 Pro, Tecan). Cell survival rate was calculated as follows: […]
as §4

[6] = Plasma pharmacokinetics of free and total MMAE in MIA PaCa2 tumor-bearing mice; assay type: in vivo; details: for plasma concentration of free MMAE: 10 min after single intravenous dose, 0.5 mg/kg MMAE equivalent
Procedure: (§5) Quantification of MMAE by LC-MS: An Agilent 1260 Infinity liquid chromatography system (G1312B) with an Agilent 6530 Q-TOF mass spectrometer was used to detect the drug MMAE. 5 μL of sample was injected into an Eclipse Plus C18 column (50×2.1 mm, 5 μm) followed by a gradient elution at 0.7 mL/min. […] Electrospray ionization source was used in positive mode. To derive standard curves for MMAE, drug standards were spiked into blank matrix along with internal standard. Samples were then prepared for LC-MS analysis. MMAE was monitored at m/z 740 [M+Na]+, 719 [M+H]+, 371 [M+Na+1-1]^2+ and 360 [M+2H]^2±. Deuterated (D8) MMAE as internal standard was monitored at m/z 748 [M+Na]+, 727 [M+H]+, 375 [M+Na+1-1]^2+ and 364 [M+2H]^2±. The peak area of each drug standard was derived by the peak area of internal standard. The peak area ratios were then plotted as a function of standard concentrations and data points were fitted using linear regression (GraphPad). MMAE concentrations in test samples were quantified using the peak area ratio between MMAE and D8-MMAE and calculated using the standard curves.
(§6) Pharmacokinetics and tissue distribution: Thirty-six mice bearing MIA PaCa2 tumors were equally divided into 4 groups. […] All treatment arms were dosed with an equivalent amount of MMAE at 0.5 mg/kg. At 10 min, 24 h, 48 h, 72 h, 96 h and 168 h post-administration, blood samples were collected from 3 mice in each group through tail vein. Plasma was separated immediately using BD microtainer. At 24 h, 72 h and 168 h after administration, 3 mice from each group were euthanized to collect liver, kidney, and tumor tissue samples. Plasma and tissue samples were stored at −80° C. until further analysis.
(§7) To determine the amount of free MMAE in plasma samples, 1 μL D8-MMAE (250 ng/mL) internal control was added into 10 μL plasma samples and then mixed with 89 μL acetonitrile. The mixture was thoroughly mixed and centrifuged (12,000 rpm, 20 min, 4° C.). The supernatant was collected for LC-MS quantification. To determine free MMAE in mouse tissues, weighed tissues were homogenized with ice-cold PBS containing protease inhibitors (cOmplete™ ULTRA Tablets, Roche) using a tissue homogenizer (Fisher Scientific) to a final concentration of 600 mg/mL. The homogenized suspension was centrifuged at 12,000 rpm for 20 min at 4° C. As an internal control, 1 μL D8-MMAE (250 ng/mL) was added into 20 μL of the supernatant and then mixed with 79 μL acetonitrile. After the mixture was mixed and centrifuged, the supernatant was collected for LC-MS for quantification.
(§8) Briefly, freshly prepared papain (Sigma-Aldrich) was added to plasma and tissue samples at a final concentration of 2 mg/mL, and the mixtures were incubated at 40° C. for 16 hours. The resulting samples were treated as method described above for LC-MS quantification.

[7] = Maximum tolerated dose in healthy athymic NCr nude mice; assay type: in vivo
Procedure: Maximum tolerated dose: All animal experiments were approved and performed under the guidelines by the Institutional Animal Care and Use Committee at. The University of Texas at Austin. […] Mice were injected every 4 days for a total of 4 repeated doses. Body weight and general appearance of each mice were monitored for 10 days after the last dose of injection.

[8] = Body weight change at 0.9 mg/kg MMAE equivalent dose; assay type: in vivo, mice; details: multiple dosing
Procedure: FIGS. 15A-15E: Body weight change of mice when dosed with 0.9 mg/kg MMAE equivalent dose. […] Body weights of mice during and after treatments were monitored. (n=5). Data shown as mean±standard deviation. Mice in MMAE group (B) were dosed with 0.9 mg/kg MMAE at Day 0 and 4.

[9] = tested on: MIA PaCa2 xenografts; assay: In vivo antitumor efficacy, MIA PaCa2 xenografts; design: species or system mice; details: every 4 days, 4 doses; for tumor growth: 0.5 mg/kg MMAE equivalent
Procedure: Tumor-bearing mouse models: Eight to ten week old athymic female NCr nude mice and C57BL/6 mice (Taconic) were used to establish xenograft mouse model and syngeneic mouse model, respectively. […] The cell suspension was then gently mixed with equal volume of Matrigel® (Corning). Subsequently, 100 μL of each mixed cell suspension (MIA PaCa2 and mT4-2D) was subcutaneously inoculated into both flanks of NCr nude mice and C57BL/6 mice, respectively. After the tumors were palpable, tumor volumes were measured two times a week. The tumor volume was calculated as (1/2×length×[…]).
In vivo antitumor efficacy: Mice bearing MIA PaCa2 xenografts and syngeneic mT4-2D C57BL/6 mice were randomized when the tumor sizes were ˜150 mm^3, respectively. […] Tumor sizes were measured by a digital caliper twice a week starting from Day 0. Mice were euthanized when either tumor volume exceeded 1500 mm^3.
Statistical analysis: All of the experiments were repeated at least three times. Statistical significance was calculated using two-way ANOVA followed by Tukey's test. Survival curve was analyzed by log-rank test using GraphPad Prism 8 software.

[10] = Tissue distribution of free and total MMAE in MIA PaCa2 tumor-bearing mice; assay type: in vivo; details: 24 hours after single dose
Procedure: as §5, §6, §7, §8

[11] = tested on: soft-tissue sarcoma; details: minimal cardiac toxicity; cited from earlier work
[12] = total MMAE in plasma, 0.5 mg/kg i.v.

In the case of `CCN(c1nc(N)c(C(=O)N=C(N)N)nc1Cl)C(C)C` [EIPA, 5-(N-Ethyl-N-isopropyl)amiloride], the “inhibition of uptake of fluorescein-albumin conjugate (ALDC1)” value [1] is reported as “significantly inhibit” and the “inhibition of uptake of fluorescein-albumin conjugate (ALDC1)” value [2] is reported as “significantly inhibit”.

Compound `CC[C@H](C)[C@@H]([C@@H](CC(=O)N1CCC[C@H]1[C@H](OC)[C@@H](C)C(=O)N[C@H](C)[C@@H](O)c1ccccc1)OC)N(C)C(=O)[C@@H](NC(=O)[C@@H](NC)C(C)C)C(C)C` [MMAE, monomethyl auristatin E] (H-[NMeV]V[Dil][Dolaproine]-X1) has an IC50 ([3]; 24 hours) of 0.54 nM, an IC50 ([3]; 48 hours) of 0.46 nM and an IC50 ([3]; 72 hours) of 0.5 nM. The IC50 ([4]; 24 hours) was 0.52 nM, the IC50 ([4]; 48 hours) was 0.21 nM and the IC50 ([4]; 72 hours) was 0.21 nM. The IC50 ([5]; 24 hours) was 0.067 nM, the IC50 ([5]; 48 hours) was 0.012 nM and the “plasma concentration of free MMAE” value [6] was 86.03 ± 17.78 ng/mL. The maximum tolerated dose ([7]; MMAE equivalent dose, every 4 days, 4 doses, body weight change within 20%) was “approximately 0.5 mg/kg”, the “loss of body weight” value [8] was > 20% and the “tumor growth” value [9] was “slowed down tumor growth”.

For `CC[C@H](C)[C@@H]([C@@H](CC(=O)N1CCC[C@H]1[C@H](OC)[C@@H](C)C(=O)N[C@H](C)[C@@H](O)c1ccccc1)OC)N(C)C(=O)[C@@H](NC(=O)[C@H](C(C)C)N(C)C(=O)OCc1ccc(NC(=O)[C@H](CCCNC(N)=O)NC(=O)[C@@H](NC(=O)CCCCCN2C(=O)C=CC2=O)C(C)C)cc1)C(C)C` [MMAE-MAL, mc-vc-pab-MMAE] ({Hexanoyl(6-maleimido)}-V[Cit][PABC][NMeV]V[Dil][Dolaproine]-X1), the “plasma concentration of free MMAE” value [6] was 669.67 ± 78.94 ng/mL, the “premature release of MMAE in plasma compared to the ALDC1 group” value ([6]; free MMAE, 10 min after dosing, 0.5 mg/kg) was 13 fold and the “AUC 0-∞” value [6, 12] was 141.1938 µg·h/mL. The “AUMC 0-∞” value [6, 12] was 2827552.1 ng/ml*h^2, the Cl [6, 12] was 3.54E−06 (mg/kg)/(ng/ml)/h and the MRT [6, 12] was 20.02 h. For the same compound, the T1/2 [6, 12] was 27.82 h, the “AUC 0-t” value ([6]; total MMAE in plasma, time 0 to 168 hours, 0.5 mg/kg i.v.) was 139.9281 µg·h/mL and the “amount of free MMAE in tumor compared to the MMAE group” value [10] was “about 2 fold”. For the same compound, the “accumulation of free MMAE in tumor” value ([10]; 0.5 mg/kg MMAE) was 2.2 % ID/g, the “total MMAE in liver” value ([10]; 0.5 mg/kg MMAE) was 0.3 % ID/g and the “total MMAE in tumor” value ([10]; 0.5 mg/kg MMAE) was 3.3 % ID/g. For the same compound, the “free MMAE in the liver and kidney” value ([10]; no statistical difference to MMAE group) was “low levels”, the “maximum tolerated dose compared with ALDC1” value ([7]; percent weight loss from original weight) was “lower maximum tolerated dose” and the “loss of body weight” value [8] was ~20%. The “tumor growth” value [9] was “significantly delayed” and the “median survival of tumor-bearing mice” value ([9]; 0.5 mg/kg equivalent to MMAE) was 81 days.

For `COc1cccc2c1C(=O)c1c(O)c3c(c(O)c1C2=O)C[C@@](O)(/C(CO)=N/NC(=O)CCCCCN1C(=O)C=CC1=O)C[C@@H]3O[C@H]1C[C@H](N)[C@H](O)[C@H](C)O1` [aldoxorubicin], the “safely administered dose compared to doxorubicin” value [11] is given as 3.47 fold.
